Reference: patent publication US20200317784A1, “METHODS AND COMPOSITIONS FOR TREATING CANCER BY MODIFYING MULTIPLE ARMS OF THE IMMUNE SYSTEM” (BioXcel Therapeutics, Inc., priority 2017, published 2020)

Experiments:
[1] = test system: Ly6G+ cells (tumoricidal neutrophils); test: IHC of neutrophil infiltrate in Pan02 tumor samples; details: Day 8; compared to vehicle and PD-1 antagonist alone
Procedure: Tumor samples from the study groups were analyzed for infiltration of immune cells. […] The data was analyzed using GraphPad Prism 5. p<0.05 was statistically significant (*, p<0.05; **, p<0.01; ***, p<0.001).

[2] = test system: Pan02 tumor cells; test: Anti-tumor efficacy in Pan02 syngeneic mouse model of pancreatic carcinoma; format: in vivo; details: Pan02 s.c., C57BL/6 mice
Text: Six to eight-week-old female C57BL/6 mice were used in the studies as supplied by Beijing Vital River Laboratory Animal Technology Co., Ltd. Mice received food and water ad libitum. The study protocol and the procedures involving the care and use of animals were reviewed and approved by the Institutional Animal Care and Use Committee (IACUC) to ensure compliance with the regulations of the Association for Assessment and Accreditation of Laboratory Animal Care (AAALAC).
Stock solutions of the PD-1 antagonist at 1 mg/ml concentrations were prepared and kept at 4° C. prior to use. Dosing solutions of the PD-1 antagonist were prepared freshly at a concentration of 1 mg/ml before every administration in sterile phosphate buffered saline (PBS), adjusted to pH 7.0, and administered at a dose of 10 mg/kg intraperitoneally (i.p) per 20 g mouse. […] Talabostat mesylate was obtained from a commercial source, and prepared freshly at a working concentration of 0.1 mg/ml before every administration in sterile phosphate buffered saline (pH 7.0), maintained at 4° C., and administered perorally (p.o.) at a total dose of 20 μg per 20 g mouse.
The tumor cells were routinely sub-cultured twice per week bytrypsin-EDTA treatment. The cells in anexponential growth phase were harvested and counted for tumor inoculation. […] The date of tumor cell inoculation was denoted as Day 0.
The dosing of the agents was started on day 5 after tumor inoculation and continued until Day 28 after tumor inoculation.
Body weight (in grams), and tumor volumes (in mm^3) were measured on Days 5, 8, 12, 15, 19, 22, 26 and 29. […] Tumor volume, expressed in mm^3, was measured with a calliper.
Data related to tumor volume are presented as mean and the standard error of the mean (SEM). Statistical analyses were conducted using Student's t-test. P<0.05 and P<0.001 were considered statistically significant.
% Tumor reduction=(Mean tumor volume^vehicle control−Mean tumor volume^treatmet_group)/Mean tumor volume^vehicle control×100Table 1B. Results

[3] = test system: melanoma; details: melanoma patients; Postow et al. 2015; cited from earlier work

Molecule | Ly6G+ cells in tumor (IHC) [1] | % Tumor Reduction compared to vehicle control ([2]; Day 19 after tumor inoculation) | % Tumor Reduction compared to vehicle control ([2]; Day 22 after tumor inoculation) | % Tumor Reduction compared to vehicle control ([2]; Day 26 after tumor inoculation) | % Tumor Reduction compared to vehicle control ([2]; Day 29 after tumor inoculation) | response rate [3]
CC(C)[C@H](N)C(=O)N1CCC[C@H]1B(O)O.CS(=O)(=O)O [Talabostat mesylate, [(2R)-1-[(2S)-2-amino-3-methylbutanoyl]pyrrolidin-2-yl]boronic acid; methanesulfonic acid] | significant increase | 61.23% | 58.18% | 65.42% | 65.61% | –
ipilimumab: human monoclonal anti-CTLA-4 antibody | – | – | – | – | – | 11%
nivolumab | – | – | – | – | – | 32%
